# Measurements: patent US5288751A, “[(Substituted) phenyalkyl]furylalkynyl-and [substituted) phenyalkyl] thienylalkynyl-N-hydroxyurea inhibitors or leukotriene biosynthesis” (Abbott Laboratories, priority 1992, dated 1994)
# Tested on: Stimulated LTB4 Formation in Human Whole Blood
# Experiment: Calcium ionophore (A23187)-induced LTB4 biosynthesis in human whole blood (in vitro leukotriene biosynthesis inhibition)
# Type: cell-based
# Conditions: human heparinized whole blood; 15 min preincubation at 37° C.; A23187 8.3 μM, 30 minutes
# Experimental: Inhibition of leukotriene biosynthesis was evaluated in an assay, involving calcium ionophore-induced LTB4 biosynthesis expressed human whole blood. Human heparinized whole blood was preincubated with test compounds or vehicle for 15 min at 37° C. followed by calcium ionophore A23187 challenge (final concentration of 8.3 μM) and the reaction terminated after 30 minutes by adding two volumes of methanol containing prostaglandin B2 as an internal recovery standard. The methanol extract was analyzed for LTB4 using a commercially available radioimmunoassay.
# In Vitro Inhibitory Potencies Against Stimulated LTB4 Formation
row,Structure (SMILES),IC50
1,"CC(C#Cc1ccc(Cc2ccc(F)cc2)o1)N(O)C(N)=O (stereo not drawn) [Example 1, N-{3-[5-(4-Fluorophenylmethyl)fur-2-yl]-1-methyl-2-propynyl}-N-hydroxyurea]",60 nM
2,"CC(C#Cc1ccc(/C=C/c2ccc(F)cc2)o1)N(O)C(N)=O (stereo not drawn) [Example 5, N-[4-(5-{2-[4-Fluorophenyl]ethenyl}fur-2-yl)-1-methyl-2-propynyl]-N-hydroxyurea]",620 nM

# Continued, values first:
row,IC50,Structure (SMILES)
1,350 nM,"CC(C#Cc1ccc(/C=C/c2ccccn2)o1)N(O)C(N)=O (stereo not drawn) [Example 7, N-Hydroxy-N-[4-(5-{2-[2-pyridyl]ethenyl}fur-2-yl)-1-methyl-2-propynyl]urea]"
2,300 nM,"Cc1ccc(/C=C/c2ccc(C#CC(C)N(O)C(N)=O)o2)cc1 (stereo not drawn) [Example 9, N-Hydroxy-N-[4-(5-{2-[5-methylphenyl]ethenyl}fur-2-yl)-1-methyl-2-propynyl]urea]"
3,70 nM,"CC(C#Cc1ccc(Cc2ccc(F)cc2)s1)N(O)C(N)=O (stereo not drawn) [Example 12, N-{3-[5-(4-Fluorophenylmethyl)-2-thienyl]-1-methyl-2-propynyl}-N-hydroxyurea]"
4,70 nM,"C[C@H](C#Cc1ccc(Cc2ccc(F)cc2)s1)N(O)C(N)=O [Example 13, (R)-N-{3-[5-(4-Fluorophenylmethyl)-2-thienyl]-1-methyl-2-propynyl}-N-hydroxyurea]"

# Same assay, conditions: human heparinized whole blood; A23187 8.3 μM, 30 minutes; test concentration not stated
row,Structure (SMILES),% inhibition of stimulated LTB4 formation in human whole blood
1,CC(C#Cc1ccc(C(=O)c2ccc(F)cc2)o1)N(O)C(N)=O (stereo not drawn) [Example 2],72%
2,"CC(C#Cc1ccc(/C=C/c2cccnc2)o1)N(O)C(N)=O (stereo not drawn) [Example 4, N-Hydroxy-N-[4-(5-{2-[3-pyridyl]ethenyl}fur-2-yl)-1-methyl-2-propynyl]urea]",39%
3,"CC(C#Cc1ccc(/C=C/c2ccccc2)o1)N(O)C(N)=O (stereo not drawn) [Example 6, N-Hydroxy-N-[4-(5-{2-phenylethenyl}fur-2-yl)-1-methyl-2-propynyl]urea]",40%
4,CC(C#Cc1ccc(/C=C/c2ccc(F)cc2)s1)N(O)C(N)=O (stereo not drawn) [Example 8],62%

# Tested on: biosynthesis of leukotrienes (peritoneal fluid leukotriene levels)
# Experiment: Inhibition of leukotriene biosynthesis in vivo, rat peritoneal anaphylaxis model, oral administration
# Conditions: single 30 μmol/kg oral dose, gavage one hour prior to antigen challenge, 15 minutes after challenge
# Experimental: Inhibition of the biosynthesis of leuktrienes in vivo after oral administration of compound was determined using a rat peritoneal anaphylaxis model in a similar manner as that described by Young and coworkers (Young, P. R.; Dyer, R. D.; Carter, G. W., Fed. Proc., Fed. Am. Soc. Exp. Biol. 1985, 44: 1185). In this model rats were injected intraperitoneally (ip) with rabbit antibody to bovine serum albumin (BSA) and three hours later injected ip with BSA to induce an antigen-antibody response. Rats were sacrificed 15 minutes after this challenge and the peritoneal fluids were collected and analyzed for leukotriene levels. Test compounds were administered by gavage one hour prior to the antigen challenge. Percent inhibition values were determined by comparing the treatment group to the mean of the control group. Compounds of this invention prevent the formation of leukotrienes in this model after oral administration in a range of 1-200 μmol/kg.
row,Structure (SMILES),% inhibition of leukotriene formation in vivo
1,"CC(C#Cc1ccc(Cc2ccc(F)cc2)o1)N(O)C(N)=O (stereo not drawn) [Example 1, N-{3-[5-(4-Fluorophenylmethyl)fur-2-yl]-1-methyl-2-propynyl}-N-hydroxyurea]",68%
2,"CC(C#Cc1ccc(Cc2ccc(F)cc2)s1)N(O)C(N)=O (stereo not drawn) [Example 12, N-{3-[5-(4-Fluorophenylmethyl)-2-thienyl]-1-methyl-2-propynyl}-N-hydroxyurea]",72%
